Experimental data: paper PMC7190830, “Neuromedin U signaling regulates retrieval of learned salt avoidance in a C. elegans gustatory circuit” (Nature Communications, 2020)
Where “and” joins values, the source holds several entries; their conditions need not be identical. Equal entries are not always repeated. Where two headings read alike, the source gives them in different places. No end group written: not given here.

Legend:
NMUR-1 = biological target: T1, NMUR-1 (Caenorhabditis elegans, UniProt Q18701); assay: Luminescence-based (aequorin) calcium mobilization assay for GPCR activation, NMUR-1 expressed in CHO cells; type: cell-based; conditions: calcium response, aequorin luminescence 496 nm, 30 s, CHO K1 cells stably overexpressing apo-aequorin and human Gα16, transiently transfected nmur-1/pcDNA3.1, 0.1 nM to 100 µM, HPLC-purified peptides, read-out: EC50 (half maximal effective concentration) to activate NMUR-1
T1 sequence (Q18701 1-400): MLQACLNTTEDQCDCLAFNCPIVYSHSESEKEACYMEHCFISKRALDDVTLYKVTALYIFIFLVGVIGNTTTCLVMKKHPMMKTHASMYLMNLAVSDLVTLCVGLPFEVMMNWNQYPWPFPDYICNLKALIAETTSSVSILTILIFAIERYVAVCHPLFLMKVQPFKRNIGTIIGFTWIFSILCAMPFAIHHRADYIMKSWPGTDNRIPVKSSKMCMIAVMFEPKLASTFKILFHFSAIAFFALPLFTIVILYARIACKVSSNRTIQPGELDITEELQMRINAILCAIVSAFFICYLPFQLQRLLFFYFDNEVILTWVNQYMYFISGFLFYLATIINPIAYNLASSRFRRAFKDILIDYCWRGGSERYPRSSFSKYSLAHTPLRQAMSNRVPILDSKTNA
Source text: Cells transfected with an empty pcDNA3.1 vector are used as a control. Error bars show S.E.M. CAPA-1-1 n = 6; CAPA-1-2 n = 6; CAPA-1-3 n = 5 experimental repeats. c The […] encodes a neuropeptide precursor that harbors three predicted peptide sequences (CAPA-1-1, -2, and -3), which are flanked by mono- and dibasic cleaving sites. Black bars indicate the positions of deletions in […]-44 mutant alleles used in this study. d Sequence comparison of C. elegans CAPA-1 neuropeptides and NmU neuropeptides from H. sapiens, D. rerio, and D. melanogaster. Conserved C-terminal features are highlighted in black. Residues with similar physicochemical properties are colored gray.

C. elegans = assay: Optogenetic silencing of ASG during conditioning or navigation of a 0-50 mM NaCl gradient; type: in vivo; conditions: ATR, single replicates
Source text: From left to right n = 51, 59, 43, 44 animals per condition. […] (bottom panel). Scale bar, 20 µm. f Optogenetic silencing of ASG. Individual worms are illuminated with yellow–green light for silencing CAPA-1 neurons during conditioning (acquisition phase) or during the NaCl chemotaxis assay when worms are navigating a linear NaCl gradient (retrieval phase) (see Methods for details). Arch requires supplementation of the cofactor all-trans retinal (ATR) to the worm culture. Transgenic C. elegans not fed ATR-supplemented food serve as a negative control. After conditioning, worms are put in the middle of a chemotaxis plate with a linear NaCl gradient (0–50 mM) and kept in the field-of-view using an automated xy-stage. […] Corresponding biased random walk and klinotaxis indices shown in Supplementary Fig. 10a, b. The time interval for statistical comparison was reduced to 5 min to accommodate the small plate format. g, h From left to right n = 10, 12, 14, 14, 12, 12, 14, 11 animals per condition. Shaded regions on a and g represent S.E.M. while black bars indicate the time interval for calculating the mean gradient position and behavioral indices. Significances determined by two-way ANOVA with Tukey’s HSD post hoc test. n.s. not significant; *p ≤ 0.05; **p ≤ 0.01; ***p ≤ 0.001. Boxplots show medians, 25th and 75th percentiles as box limits. The whiskers extend to the most extreme data points not considered as outlier.
Transgenic worms expressing the outward-directed proton pump Arch in ASG were cultured at 25 °C on culture plates seeded with sufficient OP50 E. coli. One day before the assay, transgenic worms were transferred to OP50 culture plates to which all-trans retinal (ATR, Sigma Aldrich) has been added (300 µM final concentration in fresh OP50 liquid culture). This cofactor is needed for Arch activity, and allows transgenic worms transferred to culture plates without ATR to serve as negative control. A 0 to 50 mM linear gradient was generated in a 55 mm Petri plate. First, 15 mL buffered CTX agar supplemented with 50 mM NaCl was poured in a 55 mm diameter Petri dish elevated to one side. An additional 15.5 mL buffered CTX agar without NaCl was poured on top of the first triangular wedge once it solidified. NaCl was allowed to diffuse at least 24 h prior the assay. Individual worms were washed for 15 min in a small volume of CTX buffer with or without 100 mM NaCl (NaCl-conditioning or mock-conditioning). After conditioning the worm was transferred to the center of the 0 to 50 mM NaCl gradient plate, mounted on a Zeiss AxioObserver Z1 microscope. The animal was then allowed to navigate the plate for 10 min while an automated xy-stage kept it in the field-of-view. […] Each animal’s path was reconstructed based on the recorded low-resolution video-stream and the logged stage positions. The behavior was then segmented and indices reflecting chemotaxis behavior were calculated as described above.
Supplementary Fig. 10. Behavioral effects of silencing CAPA-1 neurons (related to Fig. 7) The inhibitory opsin Arch is expressed in ASG under control of the capa-1 promoter. Individual transgenic worms are illuminated with yellow-green light for ASG silencing while being conditioned, or when they are navigating an agar plates with a 0 to 50 mM NaCl linear gradient (a-b) or no gradient (c-d). Arch requires the cofactor all-trans retinal (ATR) to be supplemented to the worm culture.
Transgenic C. elegans not fed ATR-supplemented food serve as a negative control. See Methods for details. (a) Biased random walk and (b) klinotaxis indices for mock- and NaCl-conditioned animals navigating a 0 to 50 mM NaCl gradient. (a-b) From left to right n = 10, 12, 14, 14, 12, 12, 14, 11 animals per condition. (c) Mean speed of individual worms and (d) the fraction of time in each behavioral state when worms are navigating a plate without NaCl. From left to right n = 7, 7, 7, 7, 7, 7, 5, 7 animals per

[1] = CAPA-1-1 n = 6, CAPA-1-3 n = 5 experimental repeats
[2] = NaCl-conditioned, Time Window Silencing: Navi - Retrieval
[3] = NaCl-conditioned, Time Window Silencing: Wash - conditioning
[4] = mock-conditioned, Time Window Silencing: Navi - Retrieval
[5] = mock-conditioned, Time Window Silencing: Wash - conditioning

AFFYTPRI-NH2 [CAPA-1-3]
EC50 (NMUR-1; [1]): 0.142 µM

CC1=C(/C=C/C(C)=C/C=C/C(C)=C/C=O)C(C)(C)CCC1 [ATR]
Fraction of time in Pause (C. elegans; [2]): 0
Fraction of time in Run (C. elegans; [2]): 0.741 and 0.8212 and 0.8921 and 0.8348 and 0.9414 and 0.927 and 0.8623
Fraction of time in Turn (C. elegans; [2]): 0.1151 and 0.03803 and 0.0668 and 0.04464 and 0.02467 and 0.01439
Fraction of time in Pause (C. elegans; [3]): 0
Fraction of time in Pirouette (C. elegans; [3]): 0.1562 and 0.1901 and 0.02158 and 0.1641 and 0.1069 and 0 and 0.05344
Fraction of time in Run (C. elegans; [3]): 0.7451 and 0.7688 and 0.9609 and 0.8359 and 0.888 and 0.9702 and 0.8828
Fraction of time in Turn (C. elegans; [3]): 0.09866 and 0.04111 and 0.01747 and 0 and 0.005139 and 0.0298 and 0.06372
Fraction of time in Pirouette (C. elegans; NaCl, Time Window Silencing: Navi - Retrieval): 0.1439 and 0.1408 and 0.04111 and 0.1205 and 0.03392 and 0.0483 and 0.1233
Fraction of time in Pause (C. elegans; [4]): 0
Fraction of time in Pirouette (C. elegans; [4]): 0.1326 and 0.1912 and 0.112 and 0.1439 and 0.1819 and 0.2179 and 0.1771
Fraction of time in Run (C. elegans; [4]): 0.7564 and 0.7081 and 0.7595 and 0.8171 and 0.6516 and 0.7513 and 0.7264
Fraction of time in Turn (C. elegans; [4]): 0.111 and 0.1007 and 0.1285 and 0.03905 and 0.1665 and 0.03083 and 0.0965
Fraction of time in Pause (C. elegans; [5]): 0
Fraction of time in Pirouette (C. elegans; [5]): 0.3217 and 0.03289 and 0 and 0.6616 and 0.1079 and 0.1788 and 0.04317
Fraction of time in Run (C. elegans; [5]): 0.6208 and 0.8756 and 0.9106 and 0.3384 and 0.8016 and 0.8068 and 0.9085
Fraction of time in Turn (C. elegans; [5]): 0.05755 and 0.09147 and 0.08941 and 0 and 0.09044 and 0.01439 and 0.0483

LYMARV-NH2 [CAPA-1-2]
EC50 (NMUR-1; CAPA-1-2 n = 6 experimental repeats): 8 µM

APHPSSALLVPYPRV-NH2 [CAPA-1-1]
EC50 (NMUR-1; [1]): 0.006 µM
